For orientation: IC50 means the concentration needed to halve the response being measured.

This passage reports IC50 results from patent US8822467B2 (Ligand Pharmaceuticals Inc., priority 2009, dated 2014).

A value given as a limit tells only on which side of the number the result lay.

The first assay has as its target T1, human CRTH2 (Homo sapiens, UniProt Q9Y5Y4).
T1 construct: expressed in transfected cells
T1 sequence (Q9Y5Y4 1-395): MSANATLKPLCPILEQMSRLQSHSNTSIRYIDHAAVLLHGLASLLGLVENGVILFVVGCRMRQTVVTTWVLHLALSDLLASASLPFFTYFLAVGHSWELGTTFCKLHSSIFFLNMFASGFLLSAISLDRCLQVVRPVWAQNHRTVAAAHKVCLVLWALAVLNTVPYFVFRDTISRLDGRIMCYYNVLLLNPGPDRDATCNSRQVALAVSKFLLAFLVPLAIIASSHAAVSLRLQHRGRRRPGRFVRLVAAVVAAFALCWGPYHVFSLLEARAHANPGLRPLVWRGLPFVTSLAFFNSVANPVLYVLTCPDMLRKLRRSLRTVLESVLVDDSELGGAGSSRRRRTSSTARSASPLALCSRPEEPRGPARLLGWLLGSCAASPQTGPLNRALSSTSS
In words: [35S]GTPγS binding assay (SPA) on membranes from CHO-K1 cells stably expressing human CRTH2, stimulated with 60 nM DHK-PGD2. The assay is classed as biochemical. The conditions noted are these: membranes of CHO-K1 cells expressing human CRTH2; 60 nM DHK-PGD2; Table 1; read-out: CRTH2 hGTPγS IC50. On the procedure: [^35S]GTPγS Binding Assay
SPA [^35S]G-TPγS binding was performed on membranes from CHO-K1 cells stably expressing human CRTH2. To a white, clear-bottomed 384-well plate, 4 μg membrane protein was incubated in the binding buffer (20 mM HEPES, pH 7.4, 10 mM MgCl2, 300 mM NaCl, 0.2% BSA) with 60 nM DHK-PGD2, 500 pM [^35S]GTPγS, 10 μM GDP, and 100 μg wheat germ agglutinin-coupled SPA beads (GE Healthcare) with and without increasing concentrations of compounds. The final assay volume was 40 μL and contained 1% DMSO. Samples were incubated for 2 h at ambient temperature. Plates were centrifuged 5 min at 1500 rpm. Plates were read after an additional 4 h using the Trilux 1450 Microbeta (PerkinElmer) with a 30 sec/well reading time.
(GTPγS resists hydrolysis and so accumulates on activated G proteins.)
As for `CN(Cc1ccc(OCC(=O)O)c(-c2cc(F)cc(F)c2)c1)S(=O)(=O)c1ccc(F)c(Cl)c1` [Example 67, 2-(3,5-difluorophenyl)-4-((3-chloro4-fluoro-N-methylphenylsulfonamido)methyl)phenoxyacetic acid], the IC50 was 13 nM.

The same assay, now with this note: potency class symbols; Table 2; read-out: CRTH2 hGTPγS IC50.
For `CN(Cc1ccc(OCC(=O)O)c(-c2ccccc2Cl)c1)S(=O)(=O)c1ccc(F)cc1` [Example 177, 2-(2-chlorophenyl)-4-((4-fluoro-N-methylphenylsulfonamido)methyl)phenoxyacetic acid], the IC50 fell in the range of 1000 to 10000 nM.

`CN(Cc1ccc(OCC(=O)O)c(-c2cccc(C#N)c2)c1)S(=O)(=O)c1cccc(F)c1` [Example 89, 2-(3-cyanophenyl)-4-((3-fluoro-N-methylphenylsulfonamido)methyl)phenoxyacetic acid]: the IC50 is under 100 nM.

Regarding `CN(Cc1ccc(OCC(=O)O)c(-c2cc(F)cc(F)c2)c1)S(=O)(=O)c1ccc(F)c(Cl)c1` [Example 67, 2-(3,5-difluorophenyl)-4-((3-chloro4-fluoro-N-methylphenylsulfonamido)methyl)phenoxyacetic acid], the IC50 was under 100 nM.

On to `CN(Cc1ccc(OCC(=O)O)c(-c2cncc(S(C)(=O)=O)c2)c1)S(=O)(=O)c1ccc(F)cc1` [Example 75, 2-(3-methylsulfonyl-5-pyridinyl)-4-((4-fluoro-N-methylphenylsulfonamido)methyl)phenoxyacetic acid], for which the 50% inhibitory concentration (IC50) is under 100 nM.

Turning to `CN(Cc1cc(F)c(OCC(=O)O)c(-c2cccc(C(F)(F)F)c2)c1)S(=O)(=O)c1ccc(F)cc1` [Example 161, 2-(3-trifluoromethylphenyl)-4-((4-fluoro-N-methylphenylsulfonamido)methyl)-6-fluorophenoxyacetic acid], the IC50 is 1000 to 10000 nM.

In the case of `CN(Cc1ccc(OCC(=O)O)c(-c2cccc(C(F)(F)F)c2)c1)S(=O)(=O)c1ccc(S(C)(=O)=O)cc1` [Example 134, 2-(3-trifluoromethylphenyl)-4-((4-methylsulfonyl-N-methylphenylsulfonamido)methyl)phenoxyacetic acid], the IC50 fell in the range of 100 to 1000 nM.

For the molecule `CN(Cc1cc(-c2cccc(C#N)c2)c(OCC(=O)O)cc1Cl)S(=O)(=O)c1ccccc1` [Example 73, 2-(3-cyanophenyl)-4-((N-methylphenylsulfonamido)methyl)-5-chlorophenoxyacetic acid], the IC50 is under 100 nM.

For `Cc1nnc(-c2cccc(-c3cc(CN(C)S(=O)(=O)c4ccc(F)cc4)ccc3OCC(=O)O)c2)o1` [Example 129, 2-(3-(5-methyl-1,3,4-oxadiazol-2-yl)phenyl)-4-((4-fluoro-N-methylphenylsulfonamido)methyl)phenoxyacetic acid], the IC50 is 100 to 1000 nM.

Regarding `CNS(=O)(=O)c1cccc(-c2cc(CN(C)S(=O)(=O)c3ccc(F)c(Cl)c3)ccc2OCC(=O)O)c1` [Example 16, 2-(2-(3-N-methylsulfamoylphenyl)-4-((3-chloro-4-fluoro-N-methylphenylsulfonamido)methyl)phenoxy)acetic acid], the IC50 is under 100 nM.

Regarding `CN(Cc1ccc(OCC(=O)O)c(-c2cccc(F)c2F)c1)S(=O)(=O)c1ccc(F)cc1` [Example 122, 2-(2,3-difluorophenyl)-4-((4-fluoro-N-methylphenylsulfonamido)methyl)phenoxyacetic acid], the half-maximal inhibitory concentration (IC50) was in the range of 100 to 1000 nM.

Regarding `CN(Cc1ccc(OCC(=O)O)c(-c2ccccc2)c1)S(=O)(=O)c1ccccc1` [Example 169, 2-phenyl-4-((N-methylphenylsulfonamido)methyl)phenoxyacetic acid], the IC50 is 1000 to 10000 nM.

In the case of `Cc1noc(C)c1-c1cc(CN(C)S(=O)(=O)c2ccc(F)cc2)ccc1OCC(=O)O` [Example 171, 2-(3,5-dimethylisoxazol-4-yl)-4-((4-fluoro-N-methylphenylsulfonamido)methyl)phenoxyacetic acid], the IC50 was in the range of 1000 to 10000 nM.

As to `CN(Cc1ccc(OCC(=O)O)c(-c2cccc(S(C)(=O)=O)c2)c1)S(=O)(=O)c1ccc(F)c(Cl)c1` [Example 39, 2-(3-methylsulfonylphenyl)-4-((3-chloro-4-fluoro-N-methylphenylsulfonamido)methyl)phenoxyacetic acid], the IC50 was under 100 nM.
